Publication PMC11052071, “Novel JAK Inhibitors to Reduce Graft-Versus-Host Disease after Allogeneic Hematopoietic Cell Transplantation in a Preclinical Mouse Model” (Molecules, 2024)

System: T-bet
Experiment: T-bet expression in activated primary murine T cells (flow cytometry)
Assay type: cell-based, B6 mice
Settings: anti-CD3/CD28 activation beads, 3 days, dose-dependent
From the text: WU6 is a derivative of WU4, incorporating a trifluoromethane sulfonamide for WU6 instead of an ethyl sulfonamide for WU4. […]. […] Subsequently, we examined the effect of WU6 on the expression of CXCR3 and T-bet (the master transcription factor of Th1 and cytotoxic T cell differentiation) in primary murine T cells.
Figure 8 Effect of WU6 on the expression of CXCR3 and T-bet in vitro and GvHD in mouse model of allo-HCT. (A–D) Primary T cells were isolated from B6 and treated with WU6 at indicated doses for 3 days in the presence of anti-CD3/CD28 activation beads. After 3 days, the expression of CXCR3 (A,B) and T-bet (C,D) in the CD4 and CD8 was determined by flow cytometry. Survival rate and (E) clinical GvHD scores (F) of mice treated with WU6 after allo-HCT. (G,H) % BM-derived B cells (B220+) and T cells (CD3+) were examined in the peripheral blood on day 27 after allo-HCT. * p < 0.05, ** p < 0.01, and *** p < 0.001. All error bars are represented as mean ± standard deviation.
T cells from in vitro primary murine T cell culture, fresh peripheral blood, or whole splenocytes were analyzed according to cell surface and intracellular markers. […] All cells were run on a ZE5 Cell Analyzer (BD Biosciences, Mountain View, CA, USA) or Attune® NxT (Thermofisher Scientific, Waltham, MA, USA) and analyzed with the FlowJo software, version 10.9.0 (FlowJo LLC., Ashland, OR, USA). […]

## N#CCC1(n2cc(-c3ncnc4[nH]ccc34)cn2)CC2(CC(NS(=O)(=O)C(F)(F)F)C2)C1 (stereo not shown) [WU6]
  T-bet expression in CD4 and CD8 T cells: significantly downregulated
